The subject of one assay is Citrobacter freundii. Briefly: In vitro inhibition of Citrobacter freundii 1982 growth. It counts as functional.
A further assay addresses Beta-lactamase (Pseudomonas aeruginosa (strain ATCC 15692 / PAO1 / 1C / PRS 101 / LMG12228), UniProt P24735). Briefly: Inhibition of Pseudomonas aeruginosa 18SH Beta-lactamase.
The next assay relates to Pseudomonas aeruginosa. Kind of assay: In vitro inhibition of Pseudomonas aeruginosa 18SH growth. It counts as functional.
A further assay has as its system Escherichia coli. Kind of assay: In vitro inhibition of Escherichia coli TEM-3 growth. Type of assay: functional.
Assay [1] can be described thus: Relative permeability as IC50 for beta lactamase inhibition in intact Citrobacter freundii growing cells to the observed IC50 in the same cells treated with 0.7% final concentration of octyl-poly(oxyethylene). Type of assay: functional.
The target in assay [2] is Beta-lactamase (Pseudomonas aeruginosa (strain ATCC 15692 / PAO1 / 1C / PRS 101 / LMG12228)) (UniProt P24735).
Description: Affinity for stable acyl 18SH Beta-lactamase complex of Pseudomonas aeruginosa
Assay [3] has the same target. The source holds these as a separate data set.
Description: Deacylation of 18SH Beta-lactamase of Pseudomonas aeruginosa
Assay [4] shares this target. This is another data set of the same source.
Description: Acylation of Pseudomonas aeruginosa 18SH Beta-lactamase
The nature of assay [5]: Relative permeability as IC50 for beta lactamase inhibition in intact Pseudomonas aeruginosa growing cells to the observed IC50 in the same cells treated with 0.7% final concentration of octyl-poly(oxyethylene). Type of assay: functional.
For the next assay, the target named is Beta-lactamase TEM (Escherichia coli, UniProt P62593). Briefly: Inhibitory activity against Escherichia coli TEM-3 Beta-lactamase;NA=not active.
Assay [6] is described as follows: Relative permeability as IC50 for beta lactamase inhibition in intact Citrobacter freundii growing cells to the observed IC50 in the same cells treated with 0.7% final concentration of octyl-poly(oxyethylene);NA= Not active. It counts as functional, cell-based.
A short description of assay [7]: Relative permeability as IC50 for beta lactamase inhibition in intact Pseudomonas aeruginosa growing cells to the observed IC50 in the same cells treated with 0.7% final concentration of octyl-poly(oxyethylene);NA= Not active. It counts as functional, cell-based.
In assay [8] the target is Beta-lactamase (Pseudomonas aeruginosa (strain ATCC 15692 / PAO1 / 1C / PRS 101 / LMG12228)) (UniProt P24735). This is another data set of the same source.
Description: Time taken for deacylation of Pseudomonas aeruginosa 18SH Beta-lactamase

The structures appear in SMILES notation. In brackets after ≈: the same amount, converted by molar mass. Activity calls are given as the source filed them. The rule behind the calls is not given here. A value given as a limit tells only on which side of the number the result lay.

Beta-lactamase (Pseudomonas aeruginosa (strain ATCC 15692 / PAO1 / 1C / PRS 101 / LMG12228)), sequence (P24735 27-397 limits assumed): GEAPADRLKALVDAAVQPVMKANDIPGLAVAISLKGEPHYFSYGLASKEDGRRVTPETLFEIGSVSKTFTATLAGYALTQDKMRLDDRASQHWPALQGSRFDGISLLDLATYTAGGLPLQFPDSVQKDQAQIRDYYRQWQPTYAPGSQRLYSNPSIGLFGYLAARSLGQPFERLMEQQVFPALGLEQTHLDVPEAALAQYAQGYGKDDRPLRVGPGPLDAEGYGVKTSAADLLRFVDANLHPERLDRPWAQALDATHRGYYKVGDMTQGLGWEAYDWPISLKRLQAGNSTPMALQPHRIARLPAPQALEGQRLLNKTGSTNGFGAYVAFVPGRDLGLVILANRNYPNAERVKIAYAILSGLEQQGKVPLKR
Beta-lactamase, sequence (P24735 whole entry): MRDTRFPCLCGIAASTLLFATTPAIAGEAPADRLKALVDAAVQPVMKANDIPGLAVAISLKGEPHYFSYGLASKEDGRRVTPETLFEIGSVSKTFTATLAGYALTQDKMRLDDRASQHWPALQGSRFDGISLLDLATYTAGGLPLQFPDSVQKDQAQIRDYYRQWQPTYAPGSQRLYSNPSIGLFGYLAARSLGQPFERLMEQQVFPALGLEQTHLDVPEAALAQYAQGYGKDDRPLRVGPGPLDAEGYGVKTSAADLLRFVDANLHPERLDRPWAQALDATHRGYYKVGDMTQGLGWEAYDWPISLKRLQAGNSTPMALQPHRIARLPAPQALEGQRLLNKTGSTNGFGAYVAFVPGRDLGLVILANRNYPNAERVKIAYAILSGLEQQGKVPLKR
Beta-lactamase TEM, sequence (P62593 24-286 limits assumed): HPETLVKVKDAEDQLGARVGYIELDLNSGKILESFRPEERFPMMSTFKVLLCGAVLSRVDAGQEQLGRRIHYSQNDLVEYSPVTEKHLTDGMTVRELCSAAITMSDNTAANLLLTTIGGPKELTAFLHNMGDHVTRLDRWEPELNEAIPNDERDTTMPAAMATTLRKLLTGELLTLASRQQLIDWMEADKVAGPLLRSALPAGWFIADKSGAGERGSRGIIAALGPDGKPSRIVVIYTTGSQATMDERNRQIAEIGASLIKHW

For the compound `Cc1nn(C)c(SCC(=O)N2CC[C@@H]3[C@H]2C(=O)N3S(=O)(=O)[O-])nc1=O.[Na+]`, the figures for the MIC in the assay with Citrobacter freundii, with Pseudomonas aeruginosa and in the assay with Escherichia coli were 0.25 µg/mL, 16 µg/mL and 16 µg/mL, respectively. Besides, half-maximal inhibition against Beta-lactamase (IC50) was put at 55 nM.

For `NC(=O)c1cccc(NC(=O)N2CC[C@@H]3[C@H]2C(=O)N3S(=O)(=O)[O-])c1.[Na+]`, the MIC (in general, the lowest concentration that inhibits growth of the organism) against Citrobacter freundii came to 1 µg/mL; against Pseudomonas aeruginosa, 16 µg/mL; against Escherichia coli, 16 µg/mL. Also, inhibition at Beta-lactamase was half-maximal at 24 nM (IC50).

In the case of `O=C(CNc1ccc(O)cc1)N1CC[C@@H]2[C@H]1C(=O)N2S(=O)(=O)[O-].[Na+]`, the MIC with Citrobacter freundii stood at 8 µg/mL; against Pseudomonas aeruginosa, 128 µg/mL; against Escherichia coli, 8 µg/mL. In addition, the IC50 (as a rule, the concentration that inhibits the measured activity by half) against Beta-lactamase came out at 25 nM.

With `NC(C(=O)N1CC[C@@H]2[C@H]1C(=O)N2S(=O)(=O)[O-])c1ccc(O)cc1.[Na+]` (stereo partly drawn), the Ratio in assay [1] came out at 8.7; in assay [5] it was 8.2. The compound also yielded a Ks in assay [2] of 6.9 µM. For the same compound, on Beta-lactamase, the 50% inhibitory concentration (IC50) worked out at 90 nM. In assay [3], this compound registered a k off of less than 1e-05 s⁻¹. Moreover, in assay [4], the Kon amounted to 2.7 s⁻¹. This compound came in with a minimal inhibitory concentration (MIC) against Escherichia coli of 8 µg/mL.

Take `O=C1NCC[C@@H]1NC(=O)N1CC[C@@H]2[C@H]1C(=O)N2S(=O)(=O)[O-].[Na+]`: the MIC against Citrobacter freundii worked out at 1 µg/mL; with Pseudomonas aeruginosa, 4 µg/mL; with Escherichia coli it was 16 µg/mL. On Beta-lactamase, this compound displayed a concentration for half-maximal inhibition (IC50) of 2250 nM.

Turning to `O=C(Nc1ccccc1)N1CC[C@@H]2[C@H]1C(=O)N2S(=O)(=O)[O-].[Na+]`, the MIC with Citrobacter freundii worked out at 2 µg/mL; against Pseudomonas aeruginosa, 8 µg/mL; against Escherichia coli, 4 µg/mL. Also, at Beta-lactamase TEM, the IC50 is recorded as 420 nM (not active).

On to `O=C(OCc1ccccc1)N1CC[C@@H]2[C@H]1C(=O)N2S(=O)(=O)[O-].[Na+]`, for which the minimum inhibitory concentration (MIC) with Citrobacter freundii was 8 µg/mL; with Pseudomonas aeruginosa, 128 µg/mL; in the assay with Escherichia coli, 16 µg/mL. For the same compound, the concentration for half-maximal inhibition (IC50) against Beta-lactamase was determined as 200 nM.

The compound `CC(C)(C)OC(=O)N1CC[C@@H]2[C@H]1C(=O)N2S(=O)(=O)[O-].[Na+]` yielded a Ks in assay [2] of 127 µM. In assay [6], the Ratio result is “inactive”. At Beta-lactamase, this compound returned an IC50 of 1500 nM. In [3], this compound yielded a k off of 3.7e-05 s⁻¹. Also, the Kon in assay [4] came out at 11 s⁻¹. In addition, in [5], the Ratio worked out at 24. The compound further returned an MIC in the assay on Escherichia coli of 16 µg/mL.

Consider `O=C(NC1CCNCC1)N1CC[C@@H]2[C@H]1C(=O)N2S(=O)(=O)[O-].[Na+]`, for which the Ratio in assay [1] is on record as 1.7; in assay [5], 1. In [2], this compound had a Ks of 1480 µM. On Beta-lactamase, this compound displayed an IC50 of 3900 nM. In assay [3], this compound displayed a k off of 0.0012 s⁻¹. For the same compound, the Kon in [4] came to 1.5 s⁻¹. In the assay with Escherichia coli, this compound gave a minimal inhibitory concentration (MIC) of 16 µg/mL.

Consider `O=C(OCc1ccccc1)N1C[C@H](F)[C@@H]2[C@H]1C(=O)N2S(=O)(=O)[O-].[Na+]`, for which the minimum inhibitory concentration (MIC) was more than 16 µg/mL against Citrobacter freundii, more than 16 µg/mL in the assay on Pseudomonas aeruginosa and 16 µg/mL against Escherichia coli. The compound also yielded a half-maximal inhibitory concentration (IC50) against Beta-lactamase of 380 nM.

As for `Cn1nnnc1SCC(=O)N1CC[C@@H]2[C@H]1C(=O)N2S(=O)(=O)[O-].[Na+]`, the figures for the minimum inhibitory concentration (MIC) in the assay with Citrobacter freundii, in the assay on Pseudomonas aeruginosa and with Escherichia coli were 0.5 µg/mL, 8 µg/mL and 8 µg/mL, respectively. Inhibition against Beta-lactamase was half-maximal at 200 nM (IC50).

Consider `O=C(Nc1ccc(O)cc1)N1CC[C@@H]2[C@H]1C(=O)N2S(=O)(=O)[O-].[Na+]`, for which the Ratio in assay [1] came to 0.6; in [5], 38. The Ks in [2] worked out at 50 µM. At Beta-lactamase, the 50% inhibitory concentration (IC50) is 155 nM. The k off in [3] is 5.3e-05 s⁻¹. Moreover, the Kon in assay [4] was found to be 0.4 s⁻¹. In addition, in the assay with Escherichia coli, inhibition of growth (MIC) required 8 µg/mL.

For the compound `O=C(/C=C/c1c[nH]cn1)N1CC[C@@H]2[C@H]1C(=O)N2S(=O)(=O)[O-].[Na+]`, the minimum inhibitory concentration (MIC) against Citrobacter freundii is 0.5 µg/mL; against Pseudomonas aeruginosa, 8 µg/mL; against Escherichia coli it was 16 µg/mL. At Beta-lactamase, this compound came in with a 50% inhibitory concentration (IC50) of 110 nM.

On to `Cn1ccnc1SCC(=O)N1CC[C@@H]2[C@H]1C(=O)N2S(=O)(=O)[O-].[Na+]`, for which the minimum inhibitory concentration (MIC) in the assay with Citrobacter freundii worked out at 1 µg/mL; in the assay on Pseudomonas aeruginosa, 8 µg/mL; in the assay with Escherichia coli, 16 µg/mL. The compound also displayed an IC50 at Beta-lactamase of 612 nM.

With `NC(=O)Nc1ccc(NC(=O)N2CC[C@@H]3[C@H]2C(=O)N3S(=O)(=O)[O-])cc1.[Na+]`, the minimal inhibitory concentration (MIC) against Citrobacter freundii came to 0.25 µg/mL; in the assay with Pseudomonas aeruginosa it was 4 µg/mL; in the assay with Escherichia coli it was 16 µg/mL. Also, the IC50 at Beta-lactamase came out at 48 nM.

With `Cn1nnnc1S[C@@H]1CN(C(=O)OCc2ccccc2)[C@@H]2C(=O)N(S(=O)(=O)[O-])[C@@H]21.[Na+]`, the values for the Ratio in [1] and in [5] were 10 and 68, respectively. In assay [2], the Ks was 15 µM. Also, the half-inhibitory concentration (IC50) at Beta-lactamase came out at 613 nM. In assay [3], the k off was found to be 4.1e-05 s⁻¹. This compound gave a Kon in assay [4] of 3.8 s⁻¹. The same compound returned a minimal inhibitory concentration (MIC) against Escherichia coli of 16 µg/mL.

For `Cn1cnnc1SCC(=O)N1CC[C@@H]2[C@H]1C(=O)N2S(=O)(=O)[O-].[Na+]`, the MIC in the assay with Citrobacter freundii was found to be 1 µg/mL; in the assay on Pseudomonas aeruginosa, 128 µg/mL; against Escherichia coli, 8 µg/mL. At Beta-lactamase, this compound returned an IC50 of 853 nM.

For the compound `O=C(O)[C@H]1/C(=C/CO)O[C@@H]2CC(=O)N21` [CLAVULANIC ACID], the figures for the MIC with Citrobacter freundii, against Pseudomonas aeruginosa and with Escherichia coli were 8 µg/mL (≈ 40.2 µM), more than 32 µg/mL and 0.25 µg/mL (≈ 1.26 µM), respectively.

In the case of `NC(=O)/C=C1\CN(C(=O)OCc2ccccc2)[C@@H]2C(=O)N(S(=O)(=O)[O-])[C@H]12.[Na+]`, the MIC in the assay on Citrobacter freundii was more than 16 µg/mL; against Pseudomonas aeruginosa it was more than 16 µg/mL; against Escherichia coli it was 16 µg/mL. At Beta-lactamase, this compound had a 50% inhibitory concentration (IC50) of 1040 nM.

The compound `CC(C)(C)OC(=O)N1CCC[C@@H]2[C@H]1C(=O)N2S(=O)(=O)[O-].[Na+]` returned a Ks in [2] of 3500 µM. Also, the Ratio result in assay [6] and in assay [7] was “inactive” throughout. On Beta-lactamase, this compound returned a half-maximal inhibitory concentration (IC50) of 145000 nM. In addition, the k off in assay [3] stood at 0.0007 s⁻¹. Also, the Kon in assay [4] worked out at 0.5 s⁻¹. In the assay with Escherichia coli, this compound showed a minimal inhibitory concentration (MIC) of 16 µg/mL.

Regarding `NC(=O)c1ccc(NC(=O)N2CC[C@@H]3[C@H]2C(=O)N3S(=O)(=O)[O-])cc1.[Na+]`, the MIC is 0.5 µg/mL with Citrobacter freundii, 4 µg/mL in the assay with Pseudomonas aeruginosa and 16 µg/mL with Escherichia coli. The midpoint of inhibition at Beta-lactamase, the IC50, lay at 217 nM.

`[NH-]C(=O)c1ccc[n+](CC(=O)N2CC[C@@H]3[C@H]2C(=O)N3S(=O)(=O)[O-])c1.[Na+]`: the Ratio in assay [1] is 0.8; in [5], 1.2. The compound also displayed a Ks in [2] of 65 µM. Inhibition against Beta-lactamase was half-maximal at 27 nM (IC50). Also, the k off in assay [8] was 9e-06 s⁻¹. For the same compound, the Kon in assay [4] stood at 0.9 s⁻¹. This compound also registered an MIC against Escherichia coli of 8 µg/mL.

(Values after ChEMBL document CHEMBL1131130, “Structure-based design of beta-lactamase inhibitors. 1. Synthesis and evaluation of bridged monobactams” (J Med Chem, 1998).)
